Data published in article PMC4437653, “Biochemical, Kinetic, and Spectroscopic Characterization of Ruegeria pomeroyi DddW—A Mononuclear Iron-Dependent DMSP Lyase” (PLoS ONE, 2015).

B1: Ruegeria pomeroyi DSS-3 DddW (DMSP lyase), N-terminally His-tagged, apo form (enzyme, UniProt Q5LW89 1-152, looked up)
chain: MTAMLDSFATDLTAATSLHQPGNLPHPPHAIDAENVPLSGGTDPTYGEVRWRTLINGTEAAPRDMVLGIAEFGPGHQLRPHRHTPPEFYLGLEGSGIVTIDGVPHEIRAGVALYIPGDAEHGTVAGPEGLRFAYGFASASFEAIEYRFTASA
notes: DddW, DMSP lyase of Ruegeria pomeroyi DSS-3 (locus SPO0453), 16.9 kDa without tag; No removal of the His10 tag is described; also called apo-DddW; SPO0453; source: E. coli BL21Star DE3 pLysS, purified (Ni-NTA), dialysed against EDTA to give apo-DddW

How the values were obtained:
DddW [1] = biological target: T1, DddW (Ruegeria pomeroyi, UniProt Q5LW89, E87A); assay: HPLC of acrylate product at […] nm, […] min end point; assay type: biochemical; conditions: 2 uM enzyme, 2 uM Fe(II), 10 mM DMSP, anaerobic
T1 construct: E. coli BL21Star DE3 pLysS; EDTA-treated apo enzyme loaded with metal; homodimer; cloning primers encode MTAMLDSF at the N-terminus and RFTASA at the C-terminus

DddW [2] = biological target: T2, DddW (Ruegeria pomeroyi, UniProt Q5LW89, H121A); assay: HPLC of acrylate product at […] nm, […] min end point; assay type: biochemical; conditions: 2 uM enzyme, 2 uM Fe(II), 10 mM DMSP, anaerobic
T2 construct: E. coli BL21Star DE3 pLysS; EDTA-treated apo enzyme loaded with metal; homodimer; cloning primers encode MTAMLDSF at the N-terminus and RFTASA at the C-terminus

DddW [3] = biological target: T3, DddW (Ruegeria pomeroyi, UniProt Q5LW89, H83A); assay: HPLC of acrylate product at […] nm, […] min end point; assay type: biochemical; conditions: 2 uM enzyme, 2 uM Fe(II), 10 mM DMSP, anaerobic
T3 construct: E. coli BL21Star DE3 pLysS; EDTA-treated apo enzyme loaded with metal; homodimer; cloning primers encode MTAMLDSF at the N-terminus and RFTASA at the C-terminus

DddW [4] = biological target: T4, DddW (Ruegeria pomeroyi, UniProt Q5LW89, H81A); assay: HPLC of acrylate product at […] nm, […] min end point; assay type: biochemical; conditions: 2 uM enzyme, 2 uM Fe(II), 10 mM DMSP, anaerobic
T4 construct: E. coli BL21Star DE3 pLysS; EDTA-treated apo enzyme loaded with metal; homodimer; cloning primers encode MTAMLDSF at the N-terminus and RFTASA at the C-terminus

[5] = biological target: the molecule itself; assay: SEC; as-isolated apo-DddW (19 mg/mL) on Superdex 200 16/600 in storage buffer (50 mM HEPES pH 7.5, 100 mM NaCl, 10% glycerol), 0.6 mL/min; mass by comparison with standards
purified protein = substrate: C[S+](C)CCC(=O)[O-]; assay: purified protein; assay type: biochemical, Ruegeria pomeroyi; conditions: 2 uM apo-DddW with 2 uM Fe(II), pH 8.0, 50 mM HEPES, 20 mM NaCl, room temperature, anaerobic, DMSP 0.5-35 mM

T3 sequence (Q5LW89 whole entry H83A): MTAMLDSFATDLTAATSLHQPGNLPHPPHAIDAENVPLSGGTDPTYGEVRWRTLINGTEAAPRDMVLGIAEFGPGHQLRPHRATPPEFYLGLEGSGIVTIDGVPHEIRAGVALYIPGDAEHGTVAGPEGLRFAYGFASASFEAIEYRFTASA
T2 sequence (Q5LW89 whole entry H121A): as the sequence (Q5LW89 whole entry H83A) above, with A83H, H121A counted along it
T1 sequence (Q5LW89 whole entry E87A): as the sequence (Q5LW89 whole entry H83A) above, with A83H, E87A counted along it
T4 sequence (Q5LW89 whole entry H81A): as the sequence (Q5LW89 whole entry H83A) above, with H81A, A83H counted along it

Molecule | no acrylate product formed (DddW [1]) | no acrylate product formed (DddW [2]) | no acrylate product formed (DddW [3]) | no acrylate product formed (DddW [4]) | stoichiometry N [5] | Km (purified protein) | kcat (purified protein)
C[S+](C)CCC(=O)[O-] [DMSP] | none of the DddW mutants formed the acrylate product compared to the wild-type enzyme | none of the DddW mutants formed the acrylate product compared to the wild-type enzyme | none of the DddW mutants formed the acrylate product compared to the wild-type enzyme | none of the DddW mutants formed the acrylate product compared to the wild-type enzyme |  |  | 
B1 |  |  |  |  | 2 | 8.68 ± 0.73 mM | 18.25 s⁻¹
